# Reference: US7825107B2, “Method of treating men suffering from chronic nonbacterial prostatitis with SERM compounds or aromatase inhibitors” (Hormos Medical Ltd., priority 2006, dated 2010)
# Tests used:
# [1] = Estrogen antagonist treatment of prostatitis in rats treated with T and E2; format: in vivo; conditions: 3 weeks T 240 ug/day and E2 70 ug/day, 2 doses of 5 mg/kg on the third week
# Excerpt: As prostatitis can be reversed by administering an antiestrogen, the condition is seen to be estrogen dependent.
# [2] = system: effect of estradiol on the prostate (FRA2 or PR expression); assay: Estrogen antagonist effect in the prostate of castrated Noble rats, with and without estradiol, measured by FRA2 or PR expression; format: in vivo; conditions: three weeks, 3, 10 and 30 mg/kg, with and without estradiol 70 ug/day
structure (smiles),measurement,setting,value
C[C@]12CC[C@@H]3c4ccc(O)cc4C[C@@H](CCCCCCCCC[S+]([O-])CCCC(F)(F)C(F)(F)F)[C@H]3[C@@H]1CC[C@@H]2O (some centres unmarked) [fulvestrant],effect on prostatitis compared to the control group treated with T and E2 only,[1],significantly reduced the prostatitis
OCCOCCOc1ccc(/C(=C(/CCCl)c2ccccc2)c2ccccc2)cc1 [fispemifene],"effect of estradiol on the prostate, measured by FRA2 or PR expression",[2],dose dependently inhibited the effect of estradiol on the prostate
